According to patent US8063044B2, “Pyrazole derivatives” (Pfizer Inc., priority 2001, dated 2011):

Experiments:
[1] = molecular target: T1, purified recombinant HIV-1 reverse transcriptase (Human immunodeficiency virus type 1 group M subtype B, UniProt P04585); experiment: Inhibition of HIV-1 reverse transcriptase enzyme ([3H]-SPA or flashplate assay); format: biochemical; settings: recombinant RT expressed in Escherichia Coli; Poly(rA)-oligo(dT) [3H]-SPA or [3H]-flashplate assay; 5% final DMSO; read-out: IC50 (concentration at which the compound inhibited the reverse transcriptase by 50%)
T1 construct: purified recombinant HIV-1 reverse transcriptase (RT, EC, 2.7.7.49); made in house; host or cells: Escherichia coli
From the text: A. Inhibition of HIV-1 Reverse Transcriptase Enzyme
The reverse transcriptase activity of the compounds of the invention may be assayed as following. Using the purified recombinant HIV-1 reverse transcriptase (RT, EC, 2.7.7.49) obtained by expression in Escherichia Coli, a 96-well plate assay system was established for assaying a large number of samples using either the Poly(rA)-oligo(dT) Reverse Transcriptase [3H]-SPA enzyme assay system (Amersham NK9020) or the [3H]-flashplate enzyme assay system (NEN-SMP 103) and following the manufacturer's recommendations. The compounds were dissolved in 100% DMSO and diluted with the appropriate buffer to a 5% final DMSO concentration. The inhibitory activity was expressed in percent inhibition relative to the DMSO control.

Compound: CCc1nn(CC#N)c(CC)c1Oc1cc(Cl)cc(Cl)c1
- melting point: 70 to 72 °C

Compound: CCc1nn(CCO)c(CC)c1Oc1c(C)cc(C#N)cc1C [Example 20]
- IC50 [1]: 3.2 µM

Compound: CCc1nn(Cc2cc(=O)[nH]c(N)n2)c(CC)c1Oc1cc(Cl)cc(Cl)c1 [Example 7, 2-Amino-6-{[4-(3,5-dichlorophenoxy)-3,5-diethyl-1H-pyrazol-1-yl]methyl}-4(3H)-pyrimidinone]
- IC50 [1]: 39 µM

Compound: CCc1nn(C2CNC2)c(CC)c1Oc1cc(Cl)cc(Cl)c1 [Example 51, 1-(3-Azetidinyl)-4-(3,5-dichlorophenoxy)-3,5-diethyl-1H-pyrazole]
- IC50 [1]: 0.248 µM
